Measurements taken from US20140242093A1, “METHODS AND COMPOSITIONS FOR MODULATING THE INNATE IMMUNE RESPONSE AND/OR MYOGENESIS IN A MAMMALIAN SUBJECT” (FRED HUTCHINSON CANCER RESEARCH CENTER, priority 2011, published 2014).

Tested on: control human primary myoblasts
Assay: Expression microarray of primary myoblasts transduced with lentivirus carrying DUX4-fl, DUX4-s or GFP
Description: Primary human myoblasts were collected and cultured as previously described (Snider et al., 2010). Primary myoblasts were maintained at or below 70% confluency for proliferation. For differentiation, cells were allowed to reach 95-100% confluency in growth medium. Once confluency was reached, the cells were changed to differentiation medium (F10 media supplemented with 1% horse serum, 10 μg/mL insulin, and 10 μg/mL transferrin, penicillin/streptomycin) and maintained for 4 days. Human RD cells were grown in DMEM in 10% bovine calf serum (Hyclone) and penicillin/streptomycin. The primary myoblasts were transduced with lentivirus carrying DUX-fl, DUX4- or GFP (MOI=15).
Expression microarrays were performed on the transduced cells at 24 hours after transduction as follows. […] Samples were analyzed by Illumina Human Whole Genome microarrays. Probe intensities were corrected, normalized, and summarized by the Lumi package of Bioconductor (Du et al., 2008). Differentially expressed genes were identified by the LIMMA package of Bioconductor (Wettenhall and Smyth, 2004). Gene set enrichment analysis (GSEA) was performed using the Bioconductor GOstats package (Falcon and Gentleman, 2007).

[1] = 3-fold criteria (>1.584 log2-fold change and FDR<0.01)

Question: Which results are given for “DUX4-fl: full-length DUX4 protein (SEQ ID NO:110), expressed from lentiviral or pCS2 vectors or in vitro translated”?
Answer: number of genes with increased expression: 1071 genes; number of genes with decreased expression (2-fold change and FDR<0.01 vs lenti-GFP, 24 hours after transduction): 837 genes; number of genes decreased [1]: 244 genes; number of genes increased [1]: 466 genes; BQ437417 (no symbol given) expression fc (Refseq BQ437417, cultured human skeletal muscle): −2.514; fc of ACVRL1 (expression array) (Refseq NM_000020.1): −1.01; fc of C3 (expression array) (Refseq NM_000064.1): −1; CA2 expression fc (Refseq NM_000067.1): 6.091; fc of COL1A1 (expression array) (Refseq NM_000088.3): −0.2992; CST3 fc (Refseq NM_000099.2): −1.131; ENG fc (Refseq NM_000118.1): −1.105; fc of GAMT (expression array) (Refseq NM_000156.4): −1.021; GBE1 fc (Refseq NM_000158.2): −1.129; fc of IDS (expression array) (Refseq NM_000202.3): −1.025; KCNA1 expression fc (Refseq NM_000217.2): 1.832; SGCG expression fc (Refseq NM_000231.1): 1.863; NP expression fc (Refseq NM_000270.1): 6.961; fc of PTEN (expression array) (Refseq NM_000314.4): −1.031; SLC3A1 expression fc (Refseq NM_000341.2): 2.736; SOX9 expression fc (Refseq NM_000346.2): 3.099; fc of PAFAH1B1 (expression array) (Refseq NM_000430.2): −0.3583; HBA2 expression fc (Refseq NM_000517.3): 4.721; fc of HBB (expression array) (Refseq NM_000518.4): −0.354; HBA1 expression fc (Refseq NM_000558.3): 4.787; IL8 expression fc (Refseq NM_000584.2, cultured human skeletal muscle): −3.885; fc of IL15 (expression array) (Refseq NM_000585.2): −1.013; TAP1 expression fc (Refseq NM_000593.5, cultured human skeletal muscle): −3.265; fc of IL6 (expression array) (Refseq NM_000600.1): −0.8024; IL10RB fc (Refseq NM_000628.3): −1.108; fc of ALDH2 (expression array) (Refseq NM_000690.2): −1.011; fc of ANXA1 (expression array) (Refseq NM_000700.1): −1.001; fc of CYP2J2 (expression array) (Refseq NM_000775.2): −0.06948; fc of GAS6 (expression array) (Refseq NM_000820.1): −1.026; fc of MME (expression array) (Refseq NM_000902.3): −1.046; P4HB fc (Refseq NM_000918.3): −1.109; PTGFR fc (Refseq NM_000959.3): −1.089; TOP2A fc (Refseq NM_001067.2): −1.157; TYMS fc (Refseq NM_001071.1): −1.125; VCAM1 expression fc (Refseq NM_001078.2, cultured human skeletal muscle): −3.014; ALOX15B fc (Refseq NM_001141.2): −1.071; ANPEP expression fc (Refseq NM_001150.1, cultured human skeletal muscle): −2.118; ART3 expression fc (Refseq NM_001179.3): 4.363; CA12 expression fc (Refseq NM_001218.3, cultured human skeletal muscle): −2.629; fc of CASP4 (expression array) (Refseq NM_001225.3): −1.059; CD68 fc (Refseq NM_001251.1): −1.091; CLIC1 fc (Refseq NM_001288.4): −1.083; CXADR expression fc (Refseq NM_001338.3): 2.494; DPYSL2 fc (Refseq NM_001386.4): −1.1; EMP3 fc (Refseq NM_001425.1): −1.139; FLT3LG fc (Refseq NM_001459.2): −1.065; CXCL1 expression fc (Refseq NM_001511.1, cultured human skeletal muscle): −3.523; fc of HAS1 (expression array) (Refseq NM_001523.1): −1.063; PRMT2 fc (Refseq NM_001535.2): −1.119; NDST1 fc (Refseq NM_001543.3): −1.069; IFIT2 expression fc (Refseq NM_001547.4, cultured human skeletal muscle): −4.315; IFIT1 expression fc (Refseq NM_001548.3, cultured human skeletal muscle): −4.379; IFIT3 expression fc (Refseq NM_001549.2, cultured human skeletal muscle): −3.857; IFRD1 expression fc (Refseq NM_001550.2): 2.99; IGFBP4 expression fc (Refseq NM_001552.2, cultured human skeletal muscle): −1.937; fc of CXCL10 (expression array) (Refseq NM_001565.2): −0.8766; AARS fc (Refseq NM_001605.2): −1.067; ACP2 fc (Refseq NM_001610.1): −1.126; TRIM23 expression fc (Refseq NM_001656.3): 2.235; ARSD fc (Refseq NM_001669.2): −1.079; fc of AUH (expression array) (Refseq NM_001698.1): −1.06; CFB expression fc (Refseq NM_001710.4, cultured human skeletal muscle): −5.623; C1R expression fc (Refseq NM_001733.4, cultured human skeletal muscle): −2.829; CAV1 fc (Refseq NM_001753.3): −1.097; fc of RUNX1 (expression array) (Refseq NM_001754.3): −0.2108; fc of CCND2 (expression array) (Refseq NM_001759.2): −1.057; CD9 expression fc (Refseq NM_001769.2): 1.992; CDH11 fc (Refseq NM_001797.2): −1.174; HBEGF expression fc (Refseq NM_001945.1): 3.868; ECGF1 expression fc (Refseq NM_001953.2, cultured human skeletal muscle): −4.299; EGR1 expression fc (Refseq NM_001964.2): 3.749; ETV6 fc (Refseq NM_001987.4): −1.1; EYA3 expression fc (Refseq NM_001990.2): 2.572; fc of ACSL1 (expression array) (Refseq NM_001995.2): −1.015; FES fc (Refseq NM_002005.2): −1.108; FTH1 expression fc (Refseq NM_002032.2, cultured human skeletal muscle): −2.029
